Laboratory results taken from patent US20070128217A1 (priority 2003, published 2007).

What was measured:
[1] = tested on: rabbit serum obtained by immunizing a rabbit with the SARS-CoV strain Frankfurt 1; assay type: binding; parameters: Binding of a rabbit serum to linear peptides / Binding of a rabbit serum to looped peptides / Rabbit serum linear peptides / Rabbit serum looped peptides / Binding of a rabbit serum to linear peptides of protein N of SARS-CoV Urbani (Rabbit serum linear peptides) / Binding of a rabbit serum to looped/cyclic peptides of protein N of SARS-CoV Urbani (Rabbit serum looped peptides): unit not given here
[2] = tested on: antibodies in sera from SARS patients (sera 1a, 1b, 2, 6, 37, 62, London, SARS-yellow, SARS-green); assay type: binding, human; parameters: Binding of serum 6 to linear peptides of protein X1 of SARS-CoV Urbani / Binding of serum 37 to linear peptides of protein X1 of SARS-CoV Urbani / Binding of serum 6 to looped/cyclic peptide (PEPSCAN-ELISA) / Binding of serum 37 to looped/cyclic peptide (PEPSCAN-ELISA) / Binding of serum 37 to looped/cyclic peptides of protein X1 of SARS-CoV Urbani / Binding of serum 6 to linear peptides of protein X2 / Binding of serum 37 to linear peptides of protein X2 / Binding of serum 37 to looped/cyclic peptides of protein X2 of SARS-CoV Urbani / Binding of serum 6 to linear peptides of protein M of SARS-CoV Urbani / Binding of serum 37 to linear peptides of protein M of SARS-CoV Urbani / Binding of serum 6 to looped/cyclic peptides of protein M of SARS-CoV Urbani / Binding of serum 37 to looped/cyclic peptides of protein M of SARS-CoV Urbani / Binding of serum 6 to linear peptides of protein X3 of SARS-CoV Urbani / Binding of serum 37 to linear peptides of protein X3 of SARS-CoV Urbani / Binding of serum 37 to looped/cyclic peptides of protein X3 of SARS-CoV Urbani / Binding of serum 6 to linear peptides of protein X4 of SARS-CoV Urbani / Binding of serum 37 to linear peptides of protein X4 of SARS-CoV Urbani / Binding of serum 37 to looped/cyclic peptides of protein X4 of SARS-CoV Urbani / Binding of serum 6 to linear peptides of protein X5 of SARS-CoV Urbani / Binding of serum 37 to linear peptides of protein X5 of SARS-CoV Urbani / Binding of serum 37 to looped/cyclic peptides of protein X5 of SARS-CoV Urbani / Binding of serum 6 to linear peptides of protein N of SARS-CoV Urbani / Binding of serum 37 to linear peptides of protein N of SARS-CoV Urbani / Binding of serum 6 to linear peptide (PEPSCAN-ELISA) / Binding of serum 1a to looped/cyclic peptides of protein N of SARS-CoV Urbani / Binding of serum 1b to looped/cyclic peptides of protein N of SARS-CoV Urbani / Binding of serum 2 to looped/cyclic peptides of protein N of SARS-CoV Urbani / Binding of serum 6 to looped/cyclic peptides of protein N of SARS-CoV Urbani / Binding of serum 37 to looped/cyclic peptides of protein N of SARS-CoV Urbani / Binding of serum 62 to looped/cyclic peptides of protein N of SARS-CoV Urbani / Binding of serum London to looped/cyclic peptides of protein N of SARS-CoV Urbani / Binding of serum SARS-green to looped/cyclic peptides of protein N of SARS-CoV Urbani: unit not given here
[3] = tested on: control sera (pooled serum of ten healthy LUMC hospital workers; commercial negative donor pooled serum from the Dutch bloodbank); assay type: binding, human; parameters: Binding of Control serum LUMC to linear peptides / Binding of Control serum Blood-bank to linear peptides / Binding of Control serum LUMC to looped peptides / Binding of Control Serum Blood-Bank to Looped peptides / Binding of Control serum LUMC to linear peptides of the protein M of SARS-CoV Urbani / Binding of Control serum Blood-bank to linear peptides of the protein M of SARS-CoV Urbani / Binding of Control serum LUMC to looped peptides of the protein M of SARS-CoV Urbani / Binding of Control Serum Blood-Bank to Looped peptides of the protein M of SARS-CoV Urbani: unit not given here

Sequence: ALQELLIQQWIQFMM
- Binding of a rabbit serum to linear peptides [1]: 0.2
- Binding of a rabbit serum to looped peptides [1]: 0.4
- Binding of serum 1a to linear peptides of protein X2 [2]: 0.7
- Binding of serum 1a to looped/cyclic peptides of protein X2 of SARS-CoV Urbani [2]: 0.7
- Binding of serum 1b to linear peptides of protein X2 [2]: 0.6
- Binding of serum 1b to looped/cyclic peptides of protein X2 of SARS-CoV Urbani [2]: 0.5
- Binding of serum 2 to linear peptides of protein X2 [2]: 0.4
- Binding of serum 2 to looped/cyclic peptides of protein X2 of SARS-CoV Urbani [2]: 0.4
- Binding of serum 6 to linear peptides of protein X2 [2]: 0.4
- Binding of serum 6 to looped/cyclic peptides of protein X2 of SARS-CoV Urbani [2]: 0.2
- Binding of serum 37 to linear peptides of protein X2 [2]: 0.6
- Binding of serum 37 to looped/cyclic peptides of protein X2 of SARS-CoV Urbani [2]: 0.5
- Binding of serum 62 to linear peptides of protein X2 [2]: 0.6
- Binding of serum 62 to looped/cyclic peptides of protein X2 of SARS-CoV Urbani [2]: 0.7
- Binding of serum London to linear peptides of protein X2 [2]: 0.5
- Binding of serum London to looped/cyclic peptides of protein X2 of SARS-CoV Urbani [2]: 0.2
- Binding of serum SARS-green to linear peptides of protein X2 [2]: 0.7
- Binding of serum SARS-green to looped/cyclic peptides of protein X2 of SARS-CoV Urbani [2]: 0.4
- Binding of serum SARS-yellow to linear peptides of protein X2 [2]: 0.4
- Binding of serum SARS-yellow to looped/cyclic peptides of protein X2 of SARS-CoV Urbani [2]: 0.5
- Binding of Control Serum Blood-Bank to Looped peptides [3]: 0.7
- Binding of Control serum Blood-bank to linear peptides [3]: 0.5
- Binding of Control serum LUMC to linear peptides [3]: 0.4
- Binding of Control serum LUMC to looped peptides [3]: 0.7

Sequence: LQASLPFGWLVIGVA
- Binding of a rabbit serum to linear peptides [1]: 0.5
- Binding of a rabbit serum to looped peptides [1]: 0.4
- Binding of serum 1a to linear peptides of protein X1 of SARS-CoV Urbani [2]: 0.7
- Binding of serum 1a to looped/cyclic peptide (PEPSCAN-ELISA) [2]: 0.4
- Binding of serum 1b to linear peptides of protein X1 of SARS-CoV Urbani [2]: 0.6
- Binding of serum 1b to looped/cyclic peptide (PEPSCAN-ELISA) [2]: 0.3
- Binding of serum 2 to linear peptides of protein X1 of SARS-CoV Urbani [2]: 0.6
- Binding of serum 2 to looped/cyclic peptide (PEPSCAN-ELISA) [2]: 0.3
- Binding of serum 6 to linear peptides of protein X1 of SARS-CoV Urbani [2]: 0.4
- Binding of serum 6 to looped/cyclic peptide (PEPSCAN-ELISA) [2]: 0.3
- Binding of serum 37 to linear peptides of protein X1 of SARS-CoV Urbani [2]: 0.7
- Binding of serum 37 to looped/cyclic peptide (PEPSCAN-ELISA) [2]: 0.4
- Binding of serum 62 to linear peptides of protein X1 of SARS-CoV Urbani [2]: 0.7
- Binding of serum 62 to looped/cyclic peptide (PEPSCAN-ELISA) [2]: 0.5
- Binding of serum London to linear peptides of protein X1 of SARS-CoV Urbani [2]: 0.2
- Binding of serum London to looped/cyclic peptide (PEPSCAN-ELISA) [2]: 0.2
- Binding of serum SARS-green to linear peptides of protein X1 of SARS-CoV Urbani [2]: 0.3
- Binding of serum SARS-green to looped/cyclic peptide (PEPSCAN-ELISA) [2]: 0.2
- Binding of serum SARS-yellow to linear peptides of protein X1 of SARS-CoV Urbani [2]: 0.6
- Binding of serum SARS-yellow to looped/cyclic peptide (PEPSCAN-ELISA) [2]: 0.4
- Binding of Control Serum Blood-Bank to Looped peptides [3]: 0.6
- Binding of Control serum Blood-bank to linear peptides [3]: 0.8
- Binding of Control serum LUMC to linear peptides [3]: 0.5
- Binding of Control serum LUMC to looped peptides [3]: 0.5

Sequence: LLNVPLRGTIVTRPL
- Rabbit serum linear peptides [1]: 0.4
- Rabbit serum looped peptides [1]: 0.0
- Binding of serum 1a to linear peptides of protein M of SARS-CoV Urbani [2]: 0.8
- Binding of serum 1b to linear peptides of protein M of SARS-CoV Urbani [2]: 0.5
- Binding of serum 2 to linear peptides of protein M of SARS-CoV Urbani [2]: 0.5
- Binding of serum 6 to linear peptides of protein M of SARS-CoV Urbani [2]: 0.5
- Binding of serum 37 to linear peptides of protein M of SARS-CoV Urbani [2]: 0.6
- Binding of serum 62 to linear peptides of protein M of SARS-CoV Urbani [2]: 0.7
- Binding of serum London to linear peptides of protein M of SARS-CoV Urbani [2]: 0.4
- Binding of serum SARS-green to linear peptides of protein M of SARS-CoV Urbani [2]: 0.3
- Binding of serum SARS-yellow to linear peptides of protein M of SARS-CoV Urbani [2]: 0.1
- Recognition of the peptide by sera of SARS-CoV infected individuals, and form (linear, looped/cyclic) in which it is recognized [2]: recognized in looped/cyclic form
- Binding of Control Serum Blood-Bank to Looped peptides of the protein M of SARS-CoV Urbani [3]: 0.9
- Binding of Control serum Blood-bank to linear peptides of the protein M of SARS-CoV Urbani [3]: 0.7
- Binding of Control serum LUMC to linear peptides of the protein M of SARS-CoV Urbani [3]: 0.4
- Binding of Control serum LUMC to looped peptides of the protein M of SARS-CoV Urbani [3]: 0.5

Sequence: MESELVIGAVIIRGH
- Rabbit serum linear peptides [1]: 0.2
- Rabbit serum looped peptides [1]: 0.2
- Binding of serum 1a to linear peptides of protein M of SARS-CoV Urbani [2]: 0.8
- Binding of serum 1a to looped/cyclic peptides of protein M of SARS-CoV Urbani [2]: 0.7
- Binding of serum 1b to linear peptides of protein M of SARS-CoV Urbani [2]: 0.7
- Binding of serum 1b to looped/cyclic peptides of protein M of SARS-CoV Urbani [2]: 0.5
- Binding of serum 2 to linear peptides of protein M of SARS-CoV Urbani [2]: 0.8
- Binding of serum 2 to looped/cyclic peptides of protein M of SARS-CoV Urbani [2]: 0.6
- Binding of serum 6 to linear peptides of protein M of SARS-CoV Urbani [2]: 0.6
- Binding of serum 6 to looped/cyclic peptides of protein M of SARS-CoV Urbani [2]: 0.7
- Binding of serum 37 to linear peptides of protein M of SARS-CoV Urbani [2]: 0.5
- Binding of serum 37 to looped/cyclic peptides of protein M of SARS-CoV Urbani [2]: 0.7
- Binding of serum 62 to linear peptides of protein M of SARS-CoV Urbani [2]: 0.5
- Binding of serum 62 to looped/cyclic peptides of protein M of SARS-CoV Urbani [2]: 0.6
- Binding of serum London to linear peptides of protein M of SARS-CoV Urbani [2]: 0.4
- Binding of serum London to looped/cyclic peptides of protein M of SARS-CoV Urbani [2]: 0.2
- Binding of serum SARS-green to linear peptides of protein M of SARS-CoV Urbani [2]: 0.7
- Binding of serum SARS-green to looped/cyclic peptides of protein M of SARS-CoV Urbani [2]: 0.2
- Binding of serum SARS-yellow to linear peptides of protein M of SARS-CoV Urbani [2]: 0.2
- Binding of serum SARS-yellow to looped/cyclic peptides of protein M of SARS-CoV Urbani [2]: 0.6
- Binding of Control Serum Blood-Bank to Looped peptides of the protein M of SARS-CoV Urbani [3]: 0.7
- Binding of Control serum Blood-bank to linear peptides of the protein M of SARS-CoV Urbani [3]: 0.8
- Binding of Control serum LUMC to linear peptides of the protein M of SARS-CoV Urbani [3]: 0.8
- Binding of Control serum LUMC to looped peptides of the protein M of SARS-CoV Urbani [3]: 0.6

Sequence: MCLKILVRYNTRGNT
- Rabbit serum linear peptides [1]: 0.7
- Rabbit serum looped peptides [1]: 0.5
- Binding of serum 1a to linear peptides of protein X5 of SARS-CoV Urbani [2]: 0.8
- Binding of serum 1a to looped/cyclic peptides of protein X5 of SARS-CoV Urbani [2]: 0.5
- Binding of serum 1b to linear peptides of protein X5 of SARS-CoV Urbani [2]: 0.6
- Binding of serum 1b to looped/cyclic peptides of protein X5 of SARS-CoV Urbani [2]: 0.3
- Binding of serum 2 to linear peptides of protein X5 of SARS-CoV Urbani [2]: 0.8
- Binding of serum 2 to looped/cyclic peptides of protein X5 of SARS-CoV Urbani [2]: 0.5
- Binding of serum 6 to linear peptides of protein X5 of SARS-CoV Urbani [2]: 1.4
- Binding of serum 6 to looped/cyclic peptides of protein X5 of SARS-CoV Urbani [2]: 0.4
- Binding of serum 37 to linear peptides of protein X5 of SARS-CoV Urbani [2]: 0.9
- Binding of serum 37 to looped/cyclic peptides of protein X5 of SARS-CoV Urbani [2]: 0.5
- Binding of serum 62 to linear peptides of protein X5 of SARS-CoV Urbani [2]: 0.9
- Binding of serum 62 to looped/cyclic peptides of protein X5 of SARS-CoV Urbani [2]: 0.7
- Binding of serum London to linear peptides of protein X5 of SARS-CoV Urbani [2]: 0.8
- Binding of serum London to looped/cyclic peptides of protein X5 of SARS-CoV Urbani [2]: 0.4
- Binding of serum SARS-green to linear peptides of protein X5 of SARS-CoV Urbani [2]: 0.9
- Binding of serum SARS-green to looped/cyclic peptides of protein X5 of SARS-CoV Urbani [2]: 0.2
- Binding of serum SARS-yellow to linear peptides of protein X5 of SARS-CoV Urbani [2]: 0.7
- Binding of serum SARS-yellow to looped/cyclic peptides of protein X5 of SARS-CoV Urbani [2]: 0.8
- Binding of Control Serum Blood-Bank to Looped peptides [3]: 0.4
- Binding of Control serum Blood-bank to linear peptides [3]: 0.8
- Binding of Control serum LUMC to linear peptides [3]: 0.6
- Binding of Control serum LUMC to looped peptides [3]: 0.5
